This passage reports Kd results from publication PMC3293801, “Differential Contribution of the Repeats to Heparin Binding of HBHA, a Major Adhesin of Mycobacterium tuberculosis” (PLoS ONE, 2012).

The assay concerns the target T1, MalE-Ct (Mycobacterium tuberculosis, UniProt P9WIP9).
T1 construct: gene hbhA; pMAL+3R1+2R2, E. coli B834; 15N-labelled; MBP kept
The class given is binding. The note with it: 20 mM phosphate pH 6.8, 0.15 M NaCl, 20°C, 900 MHz, 60 µM protein; apparent, single site.

T1 sequence (P9WIP9 161-199): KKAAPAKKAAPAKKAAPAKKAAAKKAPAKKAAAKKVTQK

Consider dp10 heparin-derived oligosaccharide, for which the Kd was 79.4 ± 23 µM.

Take dp14 heparin-derived oligosaccharide: the Kd came to 58.8 ± 14 µM.
